# Source: patent US20260176594A1, “REDUCING DISEASE TRANSMISSION OF VECTOR BORNE DISEASES” (priority 2022, published 2026)
# Test system: Zika virus
# Assay: Zika virus replication in Aedes aegypti mosquitoes fed blood meal with harmane, plaque assay on VERO cells
# Type: in vivo
# Conditions: harmane in infectious blood meal, 7 days; for Zika virus PFU/mL in mosquito abdomens: vs control group
# Procedure: 3-to-5-day-old Aedes aegypti strain SBE mosquitoes were fed via membrane feeders on a blood meal (rabbit blood) containing approximately 10^7 PFU/ml Zika virus and the indicated concentrations of harmane dissolved in dimethyl sulphoxide (DMSO). The bloodmeal fed to the control group contained no harmane. Fully engorged mosquitoes were selected and kept on a 10% sucrose diet. In total, 30 mosquitoes were analyzed per treatment.
# After 7 days, the abdomens of mosquitoes were dissected and placed in 2 mL tubes containing glass beads and 300 μL of DMEM medium. Samples were homogenized. A 1:10 dilution series of this solution was dispersed onto 96-well plates containing VERO cells. 5-6 days later, the medium was discarded and viral plaques were fixed and developed with staining reagent (1% crystal violet in […] solution) at room temperature for 1 h. 5
# Plates were rinsed with distilled water and air-dried. Plaques were counted and multiplied by the corresponding dilution factors to calculate the number of plaque-forming units (PFUs). Horizontal red lines are median values. […] Statistical differences were assessed using the nonparametric Mann-Whitney test.
smiles,measurement,setting,value
"Cc1nccc2c1[nH]c1ccccc12 [harmane, 1-Methyl-9H-pyrido[3,4-b]indole]",statistical difference of treated groups compared to the DMSO-control (Mann-Whitney),,No significant differences
same,Zika virus PFU/mL in mosquito abdomens,,reduced level
same,Zika virus PFU/mL in mosquito abdomens,listed as Harmane,dose dependent decrease
